In patent US9162992B2, “Compounds and compositions for treatment of breathing control disorders or diseases” (GALLEON PHARMACEUTICALS, INC., priority 2010, dated 2015):

Experiments:
[1] = Stability as a function of buffer strength (1 mg/mL, citrate pH 3.0); format: physicochemical; parameters: Assay: unit not given here; conditions: for Impurities: unit assumed
Procedure: A 10 mg/mL (XXXVI) solution in 100 mM citrate buffer at pH 3.0 and a 500 mM citrate buffer at pH 3.0 were prepared. Using these two stock solutions, (XXXVI) solutions at 1 mg/mL were prepared in citrate buffers of various concentrations in the range 10-250 mM, as shown in Table 12E.
Each of the above solutions was stored in 5 mL serum vials as ca. 2.5-3 mL aliquots (total of 7 aliquots). Two aliquots were stored at each of 40° C., 60° C. and 25° C. Aliquots stored at 25° C. served as controls to be evaluated if necessary. […]

[2] = target: T1, BK potassium channel expressed in GH3 cells (Rattus norvegicus, UniProt Q62976); experiment: BK potassium channel current in GH3 cells, inside-out patches; format: cell-based
T1 construct: endogenous in cells; host or cells: GH3 cells
Procedure: Stock solutions of the test article were prepared in dimethylsulfoxide (DMSO) and stored frozen. Test article concentrations were prepared fresh daily by diluting stock solutions into a physiological saline solution (composition in mM): KCl, 125; CaCl2, 8.5; HEPES, 10; EGTA, 11.25; pH adjusted to 7.2 with KOH (prepared weekly and refrigerated until used). All test solutions contained 0.1% DMSO.
GH3 cells were grown in culture using standard procedures. Ionic currents were measured from inside-out patches of GH3 cells. Channel activity was monitored in symmetrical K^+ conditions with a holding potential of −60 mV. Activities before and in the presence of each concentration of test articles were recorded for ≧3 minutes, respectively.
Data acquisition and analyses were performed using the suite of pCLAMP (Ver. 8.2) programs (MDS-AT, Sunnyvale, Calif. Percent inhibition by test article was calculated using the following equation: 100*(NPocontrol−NPotest)/NPocontrol Results

T1 sequence (Q62976 whole entry): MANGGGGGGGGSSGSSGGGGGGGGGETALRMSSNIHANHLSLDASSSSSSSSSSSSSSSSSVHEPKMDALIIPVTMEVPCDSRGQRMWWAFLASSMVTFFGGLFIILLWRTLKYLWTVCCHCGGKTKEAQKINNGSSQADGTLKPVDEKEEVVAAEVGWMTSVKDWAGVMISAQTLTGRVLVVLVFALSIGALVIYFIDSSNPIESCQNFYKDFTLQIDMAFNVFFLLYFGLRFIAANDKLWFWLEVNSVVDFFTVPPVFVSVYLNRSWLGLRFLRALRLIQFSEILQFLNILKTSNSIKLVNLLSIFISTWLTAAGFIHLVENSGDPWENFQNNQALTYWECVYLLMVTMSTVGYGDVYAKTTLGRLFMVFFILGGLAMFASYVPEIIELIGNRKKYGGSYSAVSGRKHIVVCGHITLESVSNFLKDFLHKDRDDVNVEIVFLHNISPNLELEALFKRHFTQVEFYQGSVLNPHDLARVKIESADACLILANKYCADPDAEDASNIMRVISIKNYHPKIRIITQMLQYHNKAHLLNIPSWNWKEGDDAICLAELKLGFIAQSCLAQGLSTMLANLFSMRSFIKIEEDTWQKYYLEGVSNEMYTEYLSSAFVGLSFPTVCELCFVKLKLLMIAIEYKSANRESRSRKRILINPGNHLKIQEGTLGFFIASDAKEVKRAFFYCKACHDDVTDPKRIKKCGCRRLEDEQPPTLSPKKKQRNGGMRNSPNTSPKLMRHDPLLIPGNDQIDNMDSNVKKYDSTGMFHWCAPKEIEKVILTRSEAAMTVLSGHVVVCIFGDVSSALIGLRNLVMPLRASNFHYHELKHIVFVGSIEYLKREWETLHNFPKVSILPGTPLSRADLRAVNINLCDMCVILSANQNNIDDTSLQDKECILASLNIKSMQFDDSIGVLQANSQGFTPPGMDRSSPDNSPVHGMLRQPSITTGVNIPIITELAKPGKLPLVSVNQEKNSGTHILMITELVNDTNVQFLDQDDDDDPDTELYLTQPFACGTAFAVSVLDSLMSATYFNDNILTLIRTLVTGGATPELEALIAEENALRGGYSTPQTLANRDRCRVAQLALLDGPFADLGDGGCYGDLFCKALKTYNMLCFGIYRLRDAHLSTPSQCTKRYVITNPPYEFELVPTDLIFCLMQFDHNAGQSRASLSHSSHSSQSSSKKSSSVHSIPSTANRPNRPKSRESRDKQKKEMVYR

CCCNc1nc(NCCC)nc(N(C)OC)n1 [XXXV, N-(4,6-Bis-n-propylamino-[1,3,5]triazin-2-yl)-N,O-dimethyl-hydroxylamine]
Assay ([1]; 10 mM, 40° C. 1 wk): 0.953 | pH ([1]; 10 mM, 40° C. 1 wk): 3.26 | Assay ([1]; 10 mM, 40° C. 2 wk): 0.947 | pH ([1]; 10 mM, 40° C. 2 wk): 3.21 | Assay ([1]; 10 mM, 60° C. 1 wk): 0.953 | pH ([1]; 10 mM, 60° C. 1 wk): 3.3 | Impurities ([1]; 10 mM, 60° C. 1 wk): 0.48% | Assay ([1]; 10 mM, 60° C. 2 wk): 0.956 | pH ([1]; 10 mM, 60° C. 2 wk): 3.2 | Impurities ([1]; 10 mM, 60° C. 2 wk): 0.89% | Assay ([1]; 10 mM, initial): 0.971 | pH ([1]; 10 mM, initial): 3.16 | Assay ([1]; 20 mM, 40° C. 1 wk): 0.965 | pH ([1]; 20 mM, 40° C. 1 wk): 3.33 | Impurities ([1]; 20 mM, 40° C. 1 wk): 0.13% | Assay ([1]; 20 mM, 40° C. 2 wk): 0.966 | pH ([1]; 20 mM, 40° C. 2 wk): 3.30 | Assay ([1]; 20 mM, 60° C. 1 wk): 0.943 | pH ([1]; 20 mM, 60° C. 1 wk): 3.3 | Impurities ([1]; 20 mM, 60° C. 1 wk): 0.58% | Assay ([1]; 20 mM, 60° C. 2 wk): 0.947 | pH ([1]; 20 mM, 60° C. 2 wk): 3.3 | Impurities ([1]; 20 mM, 60° C. 2 wk): 0.88% | Assay ([1]; 20 mM, initial): 1.01 | pH ([1]; 20 mM, initial): 3.27 | Assay ([1]; 50 mM, 40° C. 1 wk): 0.959 | pH ([1]; 50 mM, 40° C. 1 wk): 3.34 | Assay ([1]; 50 mM, 40° C. 2 wk): 0.949 | pH ([1]; 50 mM, 40° C. 2 wk): 3.29 | Assay ([1]; 50 mM, 60° C. 1 wk): 0.936 | pH ([1]; 50 mM, 60° C. 1 wk): 3.3 | Impurities ([1]; 50 mM, 60° C. 1 wk): 0.59% | Assay ([1]; 50 mM, 60° C. 2 wk): 0.943 | pH ([1]; 50 mM, 60° C. 2 wk): 3.3 | Impurities ([1]; 50 mM, 60° C. 2 wk): 0.87% | Assay ([1]; 50 mM, initial): 0.976 | pH ([1]; 50 mM, initial): 3.28 | Assay ([1]; 100 mM, 40° C. 1 wk): 0.964 | pH ([1]; 100 mM, 40° C. 1 wk): 3.32 | Impurities ([1]; 100 mM, 40° C. 1 wk): 0.26% | Assay ([1]; 100 mM, 40° C. 2 wk): 0.956 | pH ([1]; 100 mM, 40° C. 2 wk): 3.29 | Impurities ([1]; 100 mM, 40° C. 2 wk): 0.38% | Assay ([1]; 100 mM, 60° C. 1 wk): 0.962 | pH ([1]; 100 mM, 60° C. 1 wk): 3.3 | Impurities ([1]; 100 mM, 60° C. 1 wk): 0.73% | Assay ([1]; 100 mM, 60° C. 2 wk): 0.946 | pH ([1]; 100 mM, 60° C. 2 wk): 3.2 | Impurities ([1]; 100 mM, 60° C. 2 wk): 1.2% | Assay ([1]; 100 mM, initial): 0.962 | pH ([1]; 100 mM, initial): 3.30 | Assay ([1]; 250 mM, 40° C. 1 wk): 0.972 | pH ([1]; 250 mM, 40° C. 1 wk): 3.25 | Impurities ([1]; 250 mM, 40° C. 1 wk): 0.21% | Assay ([1]; 250 mM, 40° C. 2 wk): 0.945 | pH ([1]; 250 mM, 40° C. 2 wk): 3.22 | Impurities ([1]; 250 mM, 40° C. 2 wk): 0.56% | Assay ([1]; 250 mM, 60° C. 1 wk): 0.955 | pH ([1]; 250 mM, 60° C. 1 wk): 3.2 | Impurities ([1]; 250 mM, 60° C. 1 wk): 1.03% | Assay ([1]; 250 mM, 60° C. 2 wk): 0.936 | pH ([1]; 250 mM, 60° C. 2 wk): 3.2 | Impurities ([1]; 250 mM, 60° C. 2 wk): 1.8% | Assay ([1]; 250 mM, initial): 0.947 | pH ([1]; 250 mM, initial): 3.21 | effect of buffer strength on impurity levels ([1]; 40° C., buffer concentration relevant to the formulation (ca. 10-50 mM)): no effect of buffer strength at 40 °C | reduction of total channel open probability ([2]; 10 μM): 42% | inhibition of the native BK channel ([2]; 1 and 10 μM): concentration—dependent inhibition | Inhibition (%), Average ([2]; (XXXV) 1 (mM as printed)): 22.3% | NPo, Average ([2]; (XXXV) 1 (mM as printed)): 0.014 | Inhibition (%), Average ([2]; (XXXV) 10 (mM as printed)): 41.4% | NPo, Average ([2]; (XXXV) 10 (mM as printed)): 0.020
